Reference: patent US20100311714A1, “1H-IMIDAZO[4,5-c]QUINOLINONE COMPOUNDS” (priority 2009, published 2010)

How the values were obtained:
[1] = Parallel Artificial Membrane Permeability Assay (PAMPA) at pH 6.8; type: physicochemical
In short: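 PAMPA permeability measured at pH 6.8 following the Wohnsland and Faller method; value reported as log Pe.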

PI3K beta = biological target: T1, PI3K beta (Homo sapiens, UniProt P42338); assay: PI3K beta kinase assay (Kinase-Glo luminescence); type: biochemical; conditions: read-out: EPK_PI3Kbeta/IC50
T1 construct: for the full-length p110-b subunit are generated and fused by overlapping PCR; His tag (C); made in house; host or cells: baculovirus BV949; Tn5 (Trichoplusia ni) or TiniPro insect cells
In short: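 PI3Kβ construct BV949 (p85 iSH2–p110β full-length, C-His), 25 nM, reacted with 1 μM ATP and 10 μg/mL phosphatidylinositol in Tris pH 7.5, MgCl2, NaCl, CHAPS, DTT buffer, 60 min at room temperature. Remaining ATP by Kinase-Glo luminescence; IC50 from 4-parameter logistic fit of 8 concentrations.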

mTOR = biological target: T2, mTOR (Homo sapiens, UniProt P42345); assay: Biochemical assay for m-TOR by TR-FRET; conditions: read-out: EPK_mTOR/IC50
T2 construct: purchased Invitrogen Corporation (Carlsbad/Calif., USA) PV4753
In short: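 mTOR (0.5 nM) phosphorylates GFP-4EBP1 (400 nM) with 8 μM ATP at rt in 50 mM HEPES pH 7.5, 10 mM MnCl2, 50 mM NaCl, 1 mM EGTA, 1 mM DTT; compounds 0.003–10 μM final. EDTA stop with Tb-anti-p4EBP1[pT46] antibody (0.5 nM); TR-FRET read after 15 min against no-enzyme and vehicle controls.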

T1 sequence (P42338 with tags, fused parts or gaps limits assumed): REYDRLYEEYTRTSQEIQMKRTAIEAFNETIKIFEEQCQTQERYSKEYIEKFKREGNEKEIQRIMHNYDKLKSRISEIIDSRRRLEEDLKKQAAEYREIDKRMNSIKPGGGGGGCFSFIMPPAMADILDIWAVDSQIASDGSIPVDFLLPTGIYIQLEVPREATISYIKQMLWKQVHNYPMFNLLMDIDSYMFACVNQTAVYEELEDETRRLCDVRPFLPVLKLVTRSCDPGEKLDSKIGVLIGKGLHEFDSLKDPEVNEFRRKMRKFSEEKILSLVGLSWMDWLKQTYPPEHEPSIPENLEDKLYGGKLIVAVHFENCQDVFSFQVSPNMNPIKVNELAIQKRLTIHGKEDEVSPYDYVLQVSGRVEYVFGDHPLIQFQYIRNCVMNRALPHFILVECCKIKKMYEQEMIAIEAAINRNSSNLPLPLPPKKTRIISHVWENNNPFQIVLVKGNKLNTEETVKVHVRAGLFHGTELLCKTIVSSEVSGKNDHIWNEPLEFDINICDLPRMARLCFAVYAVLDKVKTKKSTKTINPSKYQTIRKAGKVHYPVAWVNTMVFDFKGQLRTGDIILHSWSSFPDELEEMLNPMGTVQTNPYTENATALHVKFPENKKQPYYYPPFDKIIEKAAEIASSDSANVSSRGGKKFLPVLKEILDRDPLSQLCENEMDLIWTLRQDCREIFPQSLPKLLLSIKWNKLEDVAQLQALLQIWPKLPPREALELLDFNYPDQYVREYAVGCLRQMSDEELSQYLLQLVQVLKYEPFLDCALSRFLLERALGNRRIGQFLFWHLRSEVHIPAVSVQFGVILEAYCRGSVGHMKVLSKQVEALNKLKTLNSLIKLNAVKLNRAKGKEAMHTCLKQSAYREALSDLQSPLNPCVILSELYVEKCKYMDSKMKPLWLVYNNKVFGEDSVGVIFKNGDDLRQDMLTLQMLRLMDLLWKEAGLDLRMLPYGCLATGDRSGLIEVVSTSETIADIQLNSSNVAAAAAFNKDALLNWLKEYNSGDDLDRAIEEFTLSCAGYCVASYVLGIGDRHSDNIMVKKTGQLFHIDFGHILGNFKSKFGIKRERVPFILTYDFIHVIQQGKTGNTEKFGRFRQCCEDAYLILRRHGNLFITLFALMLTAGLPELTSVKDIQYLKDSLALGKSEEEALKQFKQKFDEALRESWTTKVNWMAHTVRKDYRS
T2 sequence (P42345 1360-2549 limits assumed): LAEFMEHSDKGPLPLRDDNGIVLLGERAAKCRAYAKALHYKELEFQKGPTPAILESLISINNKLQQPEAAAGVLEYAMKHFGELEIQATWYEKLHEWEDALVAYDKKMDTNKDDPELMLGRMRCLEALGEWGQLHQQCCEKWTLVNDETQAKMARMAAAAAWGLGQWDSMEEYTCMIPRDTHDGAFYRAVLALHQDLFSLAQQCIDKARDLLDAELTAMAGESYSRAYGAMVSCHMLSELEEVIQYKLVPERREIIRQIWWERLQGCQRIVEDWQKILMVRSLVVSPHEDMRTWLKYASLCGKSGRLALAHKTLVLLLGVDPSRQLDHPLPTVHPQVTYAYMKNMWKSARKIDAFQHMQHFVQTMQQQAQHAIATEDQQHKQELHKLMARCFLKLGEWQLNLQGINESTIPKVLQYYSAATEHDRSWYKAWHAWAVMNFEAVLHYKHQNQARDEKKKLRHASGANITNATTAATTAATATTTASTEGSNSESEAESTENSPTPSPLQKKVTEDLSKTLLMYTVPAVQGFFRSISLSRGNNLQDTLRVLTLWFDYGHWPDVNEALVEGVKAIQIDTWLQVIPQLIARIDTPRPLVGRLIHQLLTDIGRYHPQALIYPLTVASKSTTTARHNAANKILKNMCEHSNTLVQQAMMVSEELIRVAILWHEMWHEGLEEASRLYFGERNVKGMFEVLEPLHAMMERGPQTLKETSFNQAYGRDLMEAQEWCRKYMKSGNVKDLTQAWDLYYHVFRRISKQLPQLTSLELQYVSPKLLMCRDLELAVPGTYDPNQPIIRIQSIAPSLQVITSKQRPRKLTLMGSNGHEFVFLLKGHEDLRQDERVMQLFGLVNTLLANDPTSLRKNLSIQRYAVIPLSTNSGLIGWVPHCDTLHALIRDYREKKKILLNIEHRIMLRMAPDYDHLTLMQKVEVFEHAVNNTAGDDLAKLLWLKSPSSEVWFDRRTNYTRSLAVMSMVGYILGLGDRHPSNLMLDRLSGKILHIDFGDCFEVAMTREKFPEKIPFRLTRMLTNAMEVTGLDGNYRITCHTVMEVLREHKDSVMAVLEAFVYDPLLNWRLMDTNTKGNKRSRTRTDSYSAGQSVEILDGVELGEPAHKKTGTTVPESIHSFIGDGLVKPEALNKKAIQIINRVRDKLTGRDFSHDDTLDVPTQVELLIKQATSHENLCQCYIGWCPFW

With `COc1cc(-c2ccc3ncc4c(c3c2)n(-c2ccc(N(C)C)nc2C)c(=O)n4C)cnc1CO` [Example 19.4, 1-(6-Dimethylamino-2-methyl-pyridin-3-yl)-8-(6-hydroxymethyl-5-methoxy-pyridin-3-yl)-3-methyl-1,3-dihydro-imidazo[4,5-c]quinolin-2-one] the “HT-Perm logPe pH6.8” value [1] was −4.1, the IC50 (PI3K beta) was < 0.003 µM and the IC50 (mTOR) was 0.042 µM.
For `Cc1nc(N(C)C)ccc1-n1c(=O)n(C)c2cnc3ccc(-c4cncc(N)c4)cc3c21` [Example 19.5, 8-(5-Amino-pyridin-3-yl)-1-(6-dimethylamino-2-methyl-pyridin-3-yl)-3-methyl-1,3-dihydro-imidazo[4,5-c]quinolin-2-one], the “HT-Perm logPe pH6.8” value [1] was −5.2, the IC50 (PI3K beta) was 0.3 µM and the IC50 (mTOR) was 0.009 µM.
With `CNc1ncc(-c2ccc3ncc4c(c3c2)n(-c2ccc(F)nc2C)c(=O)n4C)cc1C(F)(F)F` [Example 7.13, 1-(6-Fluoro-2-methyl-pyridin-3-yl)-3-methyl-8-(6-methylamino-5-trifluoromethyl-pyridin-3-yl)-1,3-dihydro-imidazo[4,5-c]quinolin-2-one] the “HT-Perm logPe pH6.8” value [1] was −3.7, the IC50 (PI3K beta) was 0.042 µM and the IC50 (mTOR) was 0.067 µM.
With `CCNc1cc(-c2ccc3ncc4c(c3c2)n(-c2ccc(OCCOC)nc2C)c(=O)n4C)cnc1C` [Example 13.4, 8-(5-Ethylamino-6-methyl-pyridin-3-yl)-1-[6-(2-methoxy-ethoxy)-2-methyl-pyridin-3-yl]-3-methyl-1,3-dihydro-imidazo[4,5-c]quinolin-2-one] the “HT-Perm logPe pH6.8” value [1] was −4.1, the IC50 (PI3K beta) was 0.062 µM and the IC50 (mTOR) was 0.006 µM.
With `Cc1nc(C(C)(C)O)ccc1-n1c(=O)n(C)c2cnc3ccc(-c4cncc(OC(C)C)c4)cc3c21` [Example 31.9, 1-[6-(1-Hydroxy-1-methyl-ethyl)-2-methyl-pyridin-3-yl]-8-(5-isopropoxy-pyridin-3-yl)-3-methyl-1,3-dihydro-imidazo[4,5-c]quinolin-2-one] the “HT-Perm logPe pH6.8” value [1] was −3.8, the IC50 (PI3K beta) was 0.062 µM and the IC50 (mTOR) was 0.139 µM.
With `COCCN(C)c1ccc(-n2c(=O)n(C)c3cnc4ccc(-c5cnc(N)c(C(F)(F)F)c5)cc4c32)c(C)n1` [Example 15.1, 8-(6-Amino-5-trifluoromethyl-pyridin-3-yl)-1-{6-[(2-methoxy-ethyl)-methyl-amino]-2-methyl-pyridin-3-yl}-3-methyl-1,3-dihydro-imidazo[4,5-c]quinolin-2-one] the “HT-Perm logPe pH6.8” value [1] was −4, the IC50 (PI3K beta) was 0.015 µM and the IC50 (mTOR) was 0.008 µM.
In the case of `COCC(=O)Nc1ccc(-n2c(=O)n(C)c3cnc4ccc(-c5cncc(N)c5)cc4c32)c(C)n1` [Example 20.1, N-{5-[8-(5-Amino-pyridin-3-yl)-3-methyl-2-oxo-2,3-dihydro-imidazo[4,5-c]quinolin-1-yl]-6-methyl-pyridin-2-yl}-2-methoxy-acetamide], the “HT-Perm logPe pH6.8” value [1] is reported as −6.1, the IC50 (PI3K beta) is reported as 0.038 µM and the IC50 (mTOR) is reported as 0.007 µM.
For `CCOc1cc(-c2ccc3ncc4c(c3c2)n(-c2cccnc2C)c(=O)n4C)cnc1C` [Example 2.22, 8-(5-Ethoxy-6-methyl-pyridin-3-yl)-3-methyl-1-(2-methyl-pyridin-3-yl)-1,3-dihydro-imidazo[4,5-c]quinolin-2-one], the “HT-Perm logPe pH6.8” value [1] was −3.7, the IC50 (PI3K beta) was 0.201 µM and the IC50 (mTOR) was 0.08 µM.
With `Cc1cc(F)ncc1-n1c(=O)n(C)c2cnc3ccc(-c4cnc(N)c(C(F)(F)F)c4)cc3c21` [Example 16.1, 8-(6-Amino-5-trifluoromethyl-pyridin-3-yl)-1-(6-fluoro-4-methyl-pyridin-3-yl)-3-methyl-1,3-dihydro-imidazo[4,5-c]quinolin-2-one] the “HT-Perm logPe pH6.8” value [1] was −3.7, the IC50 (PI3K beta) was 0.047 µM and the IC50 (mTOR) was 0.11 µM.
In the case of `CCN(C)c1ccc(-n2c(=O)n(C)c3cnc4ccc(-c5ccc(NC)nc5)cc4c32)c(C)n1` [Example 12.1, 1-[6-(Ethyl-methyl-amino)-2-methyl-pyridin-3-yl]-3-methyl-8-(6-methylamino-pyridin-3-yl)-1,3-dihydro-imidazo[4,5-c]quinolin-2-one], the “HT-Perm logPe pH6.8” value [1] is reported as −4.1, the IC50 (PI3K beta) is reported as 0.154 µM and the IC50 (mTOR) is reported as 0.01 µM.
With `CNc1ncc(-c2ccc3ncc4c(c3c2)n(-c2ccc(N(C)C)nc2C)c(=O)n4C)cn1` [Example 19.1, 1-(6-Dimethylamino-2-methyl-pyridin-3-yl)-3-methyl-8-(2-methylamino-pyrimidin-5-yl)-1,3-dihydro-imidazo[4,5-c]quinolin-2-one] the “HT-Perm logPe pH6.8” value [1] was −3.9, the IC50 (PI3K beta) was 0.099 µM and the IC50 (mTOR) was 0.003 µM.
In the case of `COc1ccc(-n2c(=O)n(C)c3cnc4ccc(-c5cnc(CO)c(OC)c5)cc4c32)c(C)n1` [Example 11.8, 8-(6-Hydroxymethyl-5-methoxy-pyridin-3-yl)-1-(6-methoxy-2-methyl-pyridin-3-yl)-3-methyl-1,3-dihydro-imidazo[4,5-c]quinolin-2-one], the “HT-Perm logPe pH6.8” value [1] is reported as −3.9, the IC50 (PI3K beta) is reported as 2.59 µM and the IC50 (mTOR) is reported as 0.046 µM.
